Measured values as given in patent US11162073B2, “Methods for generating functional hematopoietic stem cells” (The Brigham and Women's Hospital, Inc., priority 2015, dated 2021).
Entries after “also recorded” stand apart in the source; their conditions may differ.

Experiments:
[1] = test system: zebrafish embryos; experiment: zebrafish embryos incubated with stretch-activated ion channel modulators, qRT-PCR and WISH for HSPC surrogate markers; assay type: in vivo; conditions: control zebrafish embryos, incubation between 19-42 hpf
From the text: An impact of circumferential stretch is communicated by member(s) of the […] superfamily, Trp-superfamily, ENaC/DEG superfamily, and/or Piezo family (36-39). […] However, the direct role of Trpv4 in HSC emergence has not been established. We therefore treated zebrafish embryos with a pan-inhibitor of Trpv channels (Ruthenium RED; (41)), Trpv4 antagonist (GSK 205; (42)), and Trpv4 agonist (GSK101; (29)) between 19-42 hpf, followed by qRT-PCR and WISH for HSPC surrogate markers (c-myb and runx1).

[2] = test system: E11.5 AGM; experiment: E11.5 AGM explant culture, expression of endothelial and hematopoietic genes; assay type: cell-based, mouse; conditions: data not shown
Procedure: (§1) In mice, the first heartbeat occurs at E8.25, and HSCs begin to emerge from AGM-derived hemogenic endothelium between E10.5-E12.5 (10, 11). To investigate whether circumferential stretch-activated ion channels are also involved in mammalian HSC emergence, we incubated E11.5 AGM with non-specific SAC channels inhibitor (GdCl3) and pan-Trpv channel inhibitor (Ruthenium Red) in explant culture media and analyzed their hematopoietic CFU capacity, and the expression of endothelial and hematopoietic genes (CD41, CD45.2, c-Kit, Flk1, CD144).

[3] = test system: E11.5 AGM cells; experiment: E11.5 AGM explant culture with drugs followed by colony formation (CFU) assay; assay type: cell-based, mouse; conditions: for multipotent GEMM colony formation: E11.5 AGM, 24-48 hr incubation, CFU assay
From the text: We first coated each well of the 6-well FlexCell plate using Fibronectin/Matrigel and allowed it to settle on the nylon membrane of each well. Then we seeded two embryo equivalent (e.e.) single-cell suspension of AGM (composed of endothelial, hemogenic endothelial, hematopoietic, vascular smooth muscle (VSMCs), and mesenchymal stromal cells)-derived cells in each FlexCell well, with a coating of Fibronectin/Matrigel allows AGM-derived (sorted or not sorted) cells to adhere to the bottom of the well. We filled each well with an explant culture medium containing Myelocult and growth factors (27, 28). We put these 6-well plates into the FlexCell machine and applied cyclic strain (4-12%) for 6-48 hours using customized pins hooked to the bottom of each well. We inserted the customized rubber gasket in several wells to simulate static control conditions as well. Next we added drugs modulating the stretch-activated ion channel signaling in a few wells undergoing the external cyclic strain. After 6-48 hours of external stimulation of circumferential stretch, we harvested AGM-derived cells from the FlexCell plate and analyzed their capacity to make hematopoietic cells: (I) We performed CFU assays using Methocult media to count multi-potential granulocyte, erythroid, macrophage, megakaryocyte progenitors (GEMM), granulocyte-macrophage progenitors (CFU-GM, CFU-M, CFU-G), and erythroid progenitor (BFU-E) colonies after seven days of seeding AGM derived sorted cells. (II) We analyzed the expression levels of Runx1, c-Myb, Lmo2, Gata2, CD144, and Gata1. (III) We also stained AGM-derived cells with fluorescently labeled conjugated antibodies to measure the expression levels of Flk1, CD144, CD41, c-Kit, & CD45.2. (IV) We injected two e.e. AGM (donor; CD45.2)-derived cells in sub-lethally irradiated CD45.1 (SJL; recipient) mice. We analyzed long-term engraftment and multi-lineage reconstitution potential of donor cells for 16 weeks followed by serial-transplantation to differentiate between HSCs and hemogenic endothelial cells. (V) We also performed limiting dilution assays to analyze the number of HSCs generated per AGM-derived cell following 2D circumferential stretch.
Using a customized bioreactor based on organ-on-a-chip (FIG. 4), we applied 2D circumferential stretch (6% cyclic strain, 24 hr) to a single cell suspension of two e.e. E11.5 AGM cells. In parallel, we also incubated two e.e. E11.5 AGM static cells with Trpv4 agonist (GSK101 (29)).
as §1
To further investigate the influence of Trpv4 on HSC formation from hemogenic endothelial cells, we incubated E11.5 AGM (28) with Trpv4 agonist (GSK101, 4α-PDD (44)) and Trpv4 antagonist (GSK 205) for 24-48 hr (FIG. 9).

[4] = test system: human umbilical vein endothelial cells (HUVEC); experiment: incubation of HUVEC with Trpv4 agonist, intracellular calcium levels; assay type: cell-based
[5] = test system: E11.5 AGM cells; experiment: transplant of treated E11.5 AGM cells into irradiated recipient mice, engraftment and multi-lineage reconstitution; assay type: in vivo, mouse; conditions: 2 e.e. AGM per recipient
From the text: We first coated each well of the 6-well FlexCell plate using Fibronectin/Matrigel and allowed it to settle on the nylon membrane of each well. Then we seeded two embryo equivalent (e.e.) single-cell suspension of AGM (composed of endothelial, hemogenic endothelial, hematopoietic, vascular smooth muscle (VSMCs), and mesenchymal stromal cells)-derived cells in each FlexCell well, with a coating of Fibronectin/Matrigel allows AGM-derived (sorted or not sorted) cells to adhere to the bottom of the well. We filled each well with an explant culture medium containing Myelocult and growth factors (27, 28). […] After 6-48 hours of external stimulation of circumferential stretch, we harvested AGM-derived cells from the FlexCell plate and analyzed their capacity to make hematopoietic cells: (I) We performed CFU assays using Methocult media to count multi-potential granulocyte, erythroid, macrophage, megakaryocyte progenitors (GEMM), granulocyte-macrophage progenitors (CFU-GM, CFU-M, CFU-G), and erythroid progenitor (BFU-E) colonies after seven days of seeding AGM derived sorted cells. (II) We analyzed the expression levels of Runx1, c-Myb, Lmo2, Gata2, CD144, and Gata1. […] We analyzed long-term engraftment and multi-lineage reconstitution potential of donor cells for 16 weeks followed by serial-transplantation to differentiate between HSCs and hemogenic endothelial cells. […]

[6] = test system: sih-silenced embryos; experiment: silent heart (sih)-silenced zebrafish embryos incubated with trpv4 agonist, HSPC formation; assay type: in vivo
Procedure: Silent heart cardiac troponin (sih, tnnt2)-mutant embryos lack heartbeat and blood circulation (43). […] Because heartbeat-mediated pulse pressure on blood vessels stimulates HSC emergence, we studied whether the activation of the Trpv4 ion channels triggers HSC formation in the absence of a heartbeat and blood circulation. We therefore incubated sih-silenced embryos (casper or cd41:eGFP::flk1:mCherry) with trpv4 agonist (GSK101) between 19-42 hpf.

[7] = test system: cdh5-silenced embryos; experiment: cdh5-silenced zebrafish embryos incubated with NOS inhibitor, HSC formation; assay type: in vivo; conditions: incubation between 19-48 hpf
From the text: In zebrafish the heart begins to beat around 23 hpf, the blood circulation begins at approximately 24-26 hpf, and definitive HSCs emerge from hemogenic endothelial cells in the AGM region between 26-48 hpf (11). Blood flow generates shear-stress on the ventral wall of the aortic endothelium and stimulates the endothelial-to-HSC transition by activating the NOS pathway (12, 13). When we performed time-lapse confocal imaging of both the control and the cdh5-silenced cd41:eGFP:flk1:mCherry embryos between 30-48 hpf, we found cdh5-silenced cd41:eGFP^low HSCs emerging from flk1:mCherry^+ endothelial cells despite early circulation arrest (FIG. 1A-B). In addition, we incubated cdh5-silenced embryos in the presence of L-NAME, a pharmacological inhibitor of NOS (12), between 19-48 hpf. […] Thus, HSCs would emerge from hemogenic endothelial cells, despite impaired circulation and NOS inhibition. These striking data led us to investigate shear stress-independent biomechanical and molecular mechanisms responsible for the endothelial transition to HSCs.

SMILES	expression of HSPC surrogate markers runx1 and c-myb [1]	expression of hematopoietic genes [2]	multipotent GEMM colony formation [3]	also measured
N.N.N.N.N.N.N.N.N.N.N.N.N.N.[Cl-].[Cl-].[Cl-].[Cl-].[Cl-].[Cl-].[O-2].[O-2].[Ru+3].[Ru+3].[Ru+4] [Ruthenium Red]	reduction in runx1 and c-myb expression	reduced	attenuates GEMM formation; also recorded: reduced	–
CCCCCCOC(=O)[C@]1(O)C[C@@H]2O[C@@]1(C)n1c3ccccc3c3c4c(c5c6ccccc6n2c5c31)C(=O)NC4 [KT5720]	–	–	–	Trpv4 agonist-mediated increase in multipotent GEMM formation ([3]; E11.5 AGM explant culture, together with Trpv4 agonist GSK101, 24 hr): attenuated; also recorded: attenuates stimulating impact of Trpv4 agonist
CCCCCCCCCC(=O)O[C@@H]1[C@@H](C)[C@@]2(O)[C@@H](C=C(CO)C[C@@]3(O)C(=O)C(C)=C[C@@H]23)[C@@H]2C(C)(C)[C@]12OC(=O)CCCCCCCCC [4α-PDD, 4alpha-phorbol 12,13-didecanoate]	–	–	stimulates multipotent progenitor (GEMM) formation; also recorded: stimulated multipotent GEMM formation	–
CC(C)C[C@H](NC(=O)c1cc2ccccc2s1)C(=O)N1CCN(C(=O)[C@H](CO)NS(=O)(=O)c2ccc(Cl)cc2Cl)CC1 [GSK101]	enhances HSPC formation; also recorded: increased the expression of HSPC markers	–	Increase in GEMM; also recorded: stimulates multipotent progenitor (GEMM) formation; also recorded: enhanced GEMM formation; also recorded: stimulated multipotent GEMM formation	[Ca+2]i levels [4]: increase in [Ca^+2]i levels; percentage of engraftment (CD45.2+ peripheral blood chimerism) ([5]; after 8 weeks): Increase; also recorded: increased the percentage of engraftment; multi-lineage reconstitution ([5]; peripheral blood after 8 weeks): increased; formation of cd41:eGFP+ HSCs ([6]; sih-silenced cd41-eGFP:flk1-mCherry embryos): rescues the formation of cd41:eGFP^+ HSCs; HSPC formation (mRNA expression levels of runx1 and c-myb) ([6]; sih-silenced embryos, 19-42 hpf, WISH and qRT-PCR): rescues hematopoietic stem progenitor cell (HSPC) formation
COC(=O)[C@@H](N)CCCNC(=N)N[N+](=O)[O-] [L-NAME]	–	–	–	HSC formation (zf-runx1 and zf-c-Myb expression) [7]: did not abolish HSC formation
[Cl][Gd]([Cl])[Cl] [GdCl3, Gadolinium Chloride]	reduced	reduced	–	multipotent GEMM colony formation ([3]; listed as GdC13): attenuates GEMM formation; also recorded: reduced
